# Assay results published in publication PMC6311682, “Design, Synthesis, and Biological Evaluation of 2-Nitroimidazopyrazin-one/-es with Antitubercular and Antiparasitic Activity” (Journal of Medicinal Chemistry, 2018).
# System: L. donovani MHOM/IN/80/DD8 (ATCC50212)
# Assay: L. donovani DD8 intracellular (THP-1) amastigote assay
# Type: cell-based
# Details: Leishmania donovani, read-out: antiparasitic IC50 L. donovani
row,SMILES,IC50 [µM]
1,"Cc1ccc(COc2nc(C)c(C)n3cc([N+](=O)[O-])nc23)cc1 [26e, 5,6-Dimethyl-8-((4-methylbenzyl)oxy)-2-nitroimidazo[1,2-a]pyrazine]",> 20
2,"Cc1nc(OCc2cccc(OC(F)(F)F)c2)c2nc([N+](=O)[O-])cn2c1C [26g, 5,6-Dimethyl-2-nitro-8-((3-(trifluoromethoxy)benzyl)oxy)imidazo[1,2-a]pyrazine]",> 20

# Same assay, conditions: Leishmania donovani, read-out: antiparasitic pIC50 ± SE L. donovani (converted)
row,SMILES,IC50 [µM]
1,"Cc1ccc(COc2nc(C)c(C)n3cc([N+](=O)[O-])nc23)cc1 [26e, 5,6-Dimethyl-8-((4-methylbenzyl)oxy)-2-nitroimidazo[1,2-a]pyrazine]",> 20
2,"Cc1nc(OCc2cccc(OC(F)(F)F)c2)c2nc([N+](=O)[O-])cn2c1C [26g, 5,6-Dimethyl-2-nitro-8-((3-(trifluoromethoxy)benzyl)oxy)imidazo[1,2-a]pyrazine]",> 20

# System: not listed separately
# Assay: Broth microdilution MIC assay, ESKAPE pathogens
# Type: cell-based
# Details: S. aureus, E. coli, K. pneumoniae, A. baumannii, P. aeruginosa; read-out: antibacterial MIC ESKAPE
row,SMILES,MIC [mg/L]
1,"Cc1ccc(COc2nc(C)c(C)n3cc([N+](=O)[O-])nc23)cc1 [26e, 5,6-Dimethyl-8-((4-methylbenzyl)oxy)-2-nitroimidazo[1,2-a]pyrazine]",> 32
2,"Cc1nc(OCc2cccc(OC(F)(F)F)c2)c2nc([N+](=O)[O-])cn2c1C [26g, 5,6-Dimethyl-2-nitro-8-((3-(trifluoromethoxy)benzyl)oxy)imidazo[1,2-a]pyrazine]",> 32
3,"Cc1ncc([N+](=O)[O-])n1CCO [metronidazole 1, metronidazole, reference compound]",> 32

# System: ESKAPE pathogens S. aureus (ATCC 43300), E. coli (ATCC 25922), K. pneumoniae (ATCC 700603), A. baumannii (ATCC 19606), P. aeruginosa (ATCC 27853)
# Assay: Broth microdilution MIC assay, ESKAPE pathogens
# Type: cell-based
# Details: not given
row,SMILES,antibacterial MIC ESKAPE [mg/L]
1,"Cc1ccc(COc2nc(C)c(C)n3cc([N+](=O)[O-])nc23)cc1 [26e, 5,6-Dimethyl-8-((4-methylbenzyl)oxy)-2-nitroimidazo[1,2-a]pyrazine]",>32
2,"Cc1nc(OCc2cccc(OC(F)(F)F)c2)c2nc([N+](=O)[O-])cn2c1C [26g, 5,6-Dimethyl-2-nitro-8-((3-(trifluoromethoxy)benzyl)oxy)imidazo[1,2-a]pyrazine]",>32

# System: C. albicans (ATCC 90028) and C. neoformans (H99, ATCC 208821)
# Assay: Broth microdilution MIC assay, fungi
# Type: cell-based
# Details: not given
row,SMILES,antifungal MIC [mg/L]
1,"Cc1ccc(COc2nc(C)c(C)n3cc([N+](=O)[O-])nc23)cc1 [26e, 5,6-Dimethyl-8-((4-methylbenzyl)oxy)-2-nitroimidazo[1,2-a]pyrazine]",>32
2,"Cc1nc(OCc2cccc(OC(F)(F)F)c2)c2nc([N+](=O)[O-])cn2c1C [26g, 5,6-Dimethyl-2-nitro-8-((3-(trifluoromethoxy)benzyl)oxy)imidazo[1,2-a]pyrazine]",>32

# Same assay, conditions: Candida albicans, read-out: antifungal MIC
row,SMILES,MIC [mg/L]
1,"Cc1ccc(COc2nc(C)c(C)n3cc([N+](=O)[O-])nc23)cc1 [26e, 5,6-Dimethyl-8-((4-methylbenzyl)oxy)-2-nitroimidazo[1,2-a]pyrazine]",> 32
2,"Cc1nc(OCc2cccc(OC(F)(F)F)c2)c2nc([N+](=O)[O-])cn2c1C [26g, 5,6-Dimethyl-2-nitro-8-((3-(trifluoromethoxy)benzyl)oxy)imidazo[1,2-a]pyrazine]",> 32
3,"Cc1ncc([N+](=O)[O-])n1CCO [metronidazole 1, metronidazole, reference compound]",> 32

# System: HEK293 cells
# Assay: not given
# Set-up: method as in Jarrad et al. 2
# Details: ATCC CRL-1573; ref Jarrad et al. 2; read-out: cytotoxicity CC50 HEK 293; cited from earlier work
row,SMILES,CC50 [µM]
1,O=C(NCc1ccc(F)cc1)c1ncc([N+](=O)[O-])[nH]1 [16e],> 100
2,O=C(NCc1cccc(OC(F)(F)F)c1)c1ncc([N+](=O)[O-])[nH]1 [16f],> 100
3,NC(=O)c1nc([N+](=O)[O-])cn1Cc1ccc(OC(F)(F)F)cc1 [28c],> 100
4,NC(=O)c1nc([N+](=O)[O-])cn1Cc1ccc(F)cc1 [28e],> 100
5,NC(=O)c1nc([N+](=O)[O-])cn1Cc1cccc(OC(F)(F)F)c1 [28f],> 100
6,CNC(=O)c1nc([N+](=O)[O-])cn1Cc1ccc(OC(F)(F)F)cc1 [28g],> 100
7,CN(C)C(=O)c1nc([N+](=O)[O-])cn1Cc1ccc(OC(F)(F)F)cc1 [28h],> 100
8,CCOC(=O)c1nc([N+](=O)[O-])cn1Cc1ccc(OC(F)(F)F)cc1 [28i],> 100
9,NNC(=O)c1nc([N+](=O)[O-])cn1Cc1ccc(OC(F)(F)F)cc1 [28k],> 100
10,"Cc1ncc([N+](=O)[O-])n1CCO [metronidazole 1, metronidazole, reference compound]",> 100

# System: HepG2 cells
# Assay: not given
# Set-up: method as in Jarrad et al. 2
# Details: ATCC HB-8065; ref Jarrad et al. 2; read-out: cytotoxicity CC50 HepG2; cited from earlier work
row,SMILES,CC50 [µM]
1,O=C(NCc1ccc(F)cc1)c1ncc([N+](=O)[O-])[nH]1 [16e],> 100
2,O=C(NCc1cccc(OC(F)(F)F)c1)c1ncc([N+](=O)[O-])[nH]1 [16f],> 100
3,NC(=O)c1nc([N+](=O)[O-])cn1Cc1ccc(OC(F)(F)F)cc1 [28c],> 100
4,NC(=O)c1nc([N+](=O)[O-])cn1Cc1ccc(F)cc1 [28e],> 100
5,NC(=O)c1nc([N+](=O)[O-])cn1Cc1cccc(OC(F)(F)F)c1 [28f],> 100
6,CNC(=O)c1nc([N+](=O)[O-])cn1Cc1ccc(OC(F)(F)F)cc1 [28g],> 100
7,CN(C)C(=O)c1nc([N+](=O)[O-])cn1Cc1ccc(OC(F)(F)F)cc1 [28h],> 100
8,CCOC(=O)c1nc([N+](=O)[O-])cn1Cc1ccc(OC(F)(F)F)cc1 [28i],> 100
9,NNC(=O)c1nc([N+](=O)[O-])cn1Cc1ccc(OC(F)(F)F)cc1 [28k],> 100
10,"Cc1ncc([N+](=O)[O-])n1CCO [metronidazole 1, metronidazole, reference compound]",> 100

# System: not listed separately
# Assay: Kinetic solubility determination by LC-UV
# Details: PBS, pH 7.4, Solubility µM (PBS), PBS pH 7.4, 24 h, room temperature, 1% DMSO
row,SMILES,solubility at 24 h [µM]
1,"Cc1ccc(COc2nc(C)c(C)n3cc([N+](=O)[O-])nc23)cc1 [26e, 5,6-Dimethyl-8-((4-methylbenzyl)oxy)-2-nitroimidazo[1,2-a]pyrazine]",< 5
2,"Cc1nc(OCc2cccc(OC(F)(F)F)c2)c2nc([N+](=O)[O-])cn2c1C [26g, 5,6-Dimethyl-2-nitro-8-((3-(trifluoromethoxy)benzyl)oxy)imidazo[1,2-a]pyrazine]",< 5

# Same assay, conditions: water, Solubility µM (H2O), 24 h, room temperature, 1% DMSO
row,SMILES,solubility at 24 h [µM]
1,"Cc1ccc(COc2nc(C)c(C)n3cc([N+](=O)[O-])nc23)cc1 [26e, 5,6-Dimethyl-8-((4-methylbenzyl)oxy)-2-nitroimidazo[1,2-a]pyrazine]",< 5
2,"Cc1nc(OCc2cccc(OC(F)(F)F)c2)c2nc([N+](=O)[O-])cn2c1C [26g, 5,6-Dimethyl-2-nitro-8-((3-(trifluoromethoxy)benzyl)oxy)imidazo[1,2-a]pyrazine]",< 5

# System: not listed separately
# Assay: Mammalian cytotoxicity assay (resazurin), HepG2
# Details: human, HepG2 cells
row,SMILES,CC50 at 24 h [µM]
1,"Cc1ccc(COc2nc(C)c(C)n3cc([N+](=O)[O-])nc23)cc1 [26e, 5,6-Dimethyl-8-((4-methylbenzyl)oxy)-2-nitroimidazo[1,2-a]pyrazine]",> 100
2,"Cc1nc(OCc2cccc(OC(F)(F)F)c2)c2nc([N+](=O)[O-])cn2c1C [26g, 5,6-Dimethyl-2-nitro-8-((3-(trifluoromethoxy)benzyl)oxy)imidazo[1,2-a]pyrazine]",> 100
3,"Cc1ncc([N+](=O)[O-])n1CCO [metronidazole 1, metronidazole, reference compound]",> 100

# System: not listed separately
# Assay: Mammalian cytotoxicity assay (resazurin), HEK293
# Details: human, HEK293 cells
row,SMILES,CC50 at 24 h [µM]
1,"Cc1ccc(COc2nc(C)c(C)n3cc([N+](=O)[O-])nc23)cc1 [26e, 5,6-Dimethyl-8-((4-methylbenzyl)oxy)-2-nitroimidazo[1,2-a]pyrazine]",> 100
2,"Cc1nc(OCc2cccc(OC(F)(F)F)c2)c2nc([N+](=O)[O-])cn2c1C [26g, 5,6-Dimethyl-2-nitro-8-((3-(trifluoromethoxy)benzyl)oxy)imidazo[1,2-a]pyrazine]",> 100
3,"Cc1ncc([N+](=O)[O-])n1CCO [metronidazole 1, metronidazole, reference compound]",> 100
